{"source": "ChEMBL document CHEMBL5465560", "about": "“Selectivity Literature for EUbOPEN Chemogenomic Library” (2024)", "key": {"[1]": {"molecular_target": "Sodium-dependent dopamine transporter (Homo sapiens, UniProt Q01959)", "sequence (Q01959 whole entry)": "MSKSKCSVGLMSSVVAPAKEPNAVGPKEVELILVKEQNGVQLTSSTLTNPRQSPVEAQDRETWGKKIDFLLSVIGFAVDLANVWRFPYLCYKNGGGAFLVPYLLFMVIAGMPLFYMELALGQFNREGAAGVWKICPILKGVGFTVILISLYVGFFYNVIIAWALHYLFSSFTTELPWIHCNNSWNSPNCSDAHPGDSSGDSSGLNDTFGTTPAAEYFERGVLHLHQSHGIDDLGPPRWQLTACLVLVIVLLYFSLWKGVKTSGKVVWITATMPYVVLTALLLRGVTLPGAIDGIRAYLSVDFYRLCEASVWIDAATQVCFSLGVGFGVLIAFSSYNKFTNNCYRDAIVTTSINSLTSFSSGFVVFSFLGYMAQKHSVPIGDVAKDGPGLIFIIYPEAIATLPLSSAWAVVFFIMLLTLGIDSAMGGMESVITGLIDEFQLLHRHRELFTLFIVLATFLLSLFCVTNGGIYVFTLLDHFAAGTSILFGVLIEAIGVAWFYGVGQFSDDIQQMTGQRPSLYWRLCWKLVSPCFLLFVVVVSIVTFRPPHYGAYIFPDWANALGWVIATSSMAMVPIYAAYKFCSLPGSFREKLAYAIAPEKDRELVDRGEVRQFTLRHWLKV", "experiment": "Selectivity interaction (Eurofins CEREP Diversity Profile (receptors and ion channels)) EUB0000279b SLC6A3", "conditions": "at 10 µM"}, "[2]": {"molecular_target": "T1, Serine/threonine-protein kinase LATS1 (Homo sapiens) (UniProt O95835)", "T1 sequence (whole entry)": "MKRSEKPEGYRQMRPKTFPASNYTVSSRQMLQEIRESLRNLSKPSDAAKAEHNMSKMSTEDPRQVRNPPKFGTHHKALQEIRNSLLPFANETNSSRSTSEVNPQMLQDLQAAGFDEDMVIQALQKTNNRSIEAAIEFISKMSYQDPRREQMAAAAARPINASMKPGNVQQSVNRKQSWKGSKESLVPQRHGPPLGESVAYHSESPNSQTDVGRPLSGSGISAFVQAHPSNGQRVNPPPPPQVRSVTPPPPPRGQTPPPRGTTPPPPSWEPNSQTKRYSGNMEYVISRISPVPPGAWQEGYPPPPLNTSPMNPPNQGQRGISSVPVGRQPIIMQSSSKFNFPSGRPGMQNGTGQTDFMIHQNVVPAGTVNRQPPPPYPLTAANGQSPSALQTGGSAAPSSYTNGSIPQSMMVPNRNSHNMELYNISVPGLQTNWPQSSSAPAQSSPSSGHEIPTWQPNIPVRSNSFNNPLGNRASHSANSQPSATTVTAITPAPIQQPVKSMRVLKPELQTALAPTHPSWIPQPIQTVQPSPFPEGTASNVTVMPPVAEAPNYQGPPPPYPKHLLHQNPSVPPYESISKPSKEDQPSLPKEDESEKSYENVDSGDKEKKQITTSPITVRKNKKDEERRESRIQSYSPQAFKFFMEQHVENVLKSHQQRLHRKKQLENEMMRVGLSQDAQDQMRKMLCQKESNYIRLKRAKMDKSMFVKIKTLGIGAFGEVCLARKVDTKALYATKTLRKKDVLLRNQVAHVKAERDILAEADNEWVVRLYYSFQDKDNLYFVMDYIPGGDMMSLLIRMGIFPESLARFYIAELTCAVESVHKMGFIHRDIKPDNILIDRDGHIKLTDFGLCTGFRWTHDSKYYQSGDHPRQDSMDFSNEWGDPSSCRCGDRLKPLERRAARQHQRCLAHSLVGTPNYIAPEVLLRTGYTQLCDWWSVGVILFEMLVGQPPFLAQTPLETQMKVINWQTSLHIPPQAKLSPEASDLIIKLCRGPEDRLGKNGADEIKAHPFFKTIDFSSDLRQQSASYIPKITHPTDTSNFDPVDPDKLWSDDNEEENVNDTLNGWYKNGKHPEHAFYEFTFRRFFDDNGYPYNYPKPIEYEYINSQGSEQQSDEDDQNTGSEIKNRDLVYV", "conditions": "at 10 µM"}, "[3]": {"molecular_target": "Fibroblast growth factor receptor 2 (Homo sapiens) (UniProt P21802)", "sequence (P21802 22-821 limits assumed)": "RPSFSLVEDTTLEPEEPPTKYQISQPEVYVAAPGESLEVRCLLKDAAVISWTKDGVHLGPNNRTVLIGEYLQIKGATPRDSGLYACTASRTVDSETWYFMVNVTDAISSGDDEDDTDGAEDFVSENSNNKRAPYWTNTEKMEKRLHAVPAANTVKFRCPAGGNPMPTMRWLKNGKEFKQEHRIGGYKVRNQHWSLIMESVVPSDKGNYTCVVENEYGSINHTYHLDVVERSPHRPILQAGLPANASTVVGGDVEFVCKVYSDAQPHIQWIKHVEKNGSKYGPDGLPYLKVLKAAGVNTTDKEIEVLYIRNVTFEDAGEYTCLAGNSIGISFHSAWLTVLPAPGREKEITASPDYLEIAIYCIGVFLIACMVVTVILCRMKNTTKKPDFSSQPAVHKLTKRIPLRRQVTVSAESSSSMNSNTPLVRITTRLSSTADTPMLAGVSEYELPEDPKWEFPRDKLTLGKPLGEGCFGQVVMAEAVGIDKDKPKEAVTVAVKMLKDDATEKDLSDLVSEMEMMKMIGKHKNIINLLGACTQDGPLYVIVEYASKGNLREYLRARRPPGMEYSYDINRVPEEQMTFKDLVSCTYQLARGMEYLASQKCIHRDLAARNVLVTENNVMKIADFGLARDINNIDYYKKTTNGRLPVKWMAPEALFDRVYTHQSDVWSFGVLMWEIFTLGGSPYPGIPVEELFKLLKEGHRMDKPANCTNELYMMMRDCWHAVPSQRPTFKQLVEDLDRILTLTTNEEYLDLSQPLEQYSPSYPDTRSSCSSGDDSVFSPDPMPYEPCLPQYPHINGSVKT", "experiment": "Selectivity interaction (KinomeScan (DiscoverX)) EUB0000695a FGFR2", "conditions": "at 100 nM"}, "[4]": {"molecular_target": "T2, Serine/threonine-protein kinase D1 (Homo sapiens) (UniProt Q15139)", "T2 sequence (whole entry)": "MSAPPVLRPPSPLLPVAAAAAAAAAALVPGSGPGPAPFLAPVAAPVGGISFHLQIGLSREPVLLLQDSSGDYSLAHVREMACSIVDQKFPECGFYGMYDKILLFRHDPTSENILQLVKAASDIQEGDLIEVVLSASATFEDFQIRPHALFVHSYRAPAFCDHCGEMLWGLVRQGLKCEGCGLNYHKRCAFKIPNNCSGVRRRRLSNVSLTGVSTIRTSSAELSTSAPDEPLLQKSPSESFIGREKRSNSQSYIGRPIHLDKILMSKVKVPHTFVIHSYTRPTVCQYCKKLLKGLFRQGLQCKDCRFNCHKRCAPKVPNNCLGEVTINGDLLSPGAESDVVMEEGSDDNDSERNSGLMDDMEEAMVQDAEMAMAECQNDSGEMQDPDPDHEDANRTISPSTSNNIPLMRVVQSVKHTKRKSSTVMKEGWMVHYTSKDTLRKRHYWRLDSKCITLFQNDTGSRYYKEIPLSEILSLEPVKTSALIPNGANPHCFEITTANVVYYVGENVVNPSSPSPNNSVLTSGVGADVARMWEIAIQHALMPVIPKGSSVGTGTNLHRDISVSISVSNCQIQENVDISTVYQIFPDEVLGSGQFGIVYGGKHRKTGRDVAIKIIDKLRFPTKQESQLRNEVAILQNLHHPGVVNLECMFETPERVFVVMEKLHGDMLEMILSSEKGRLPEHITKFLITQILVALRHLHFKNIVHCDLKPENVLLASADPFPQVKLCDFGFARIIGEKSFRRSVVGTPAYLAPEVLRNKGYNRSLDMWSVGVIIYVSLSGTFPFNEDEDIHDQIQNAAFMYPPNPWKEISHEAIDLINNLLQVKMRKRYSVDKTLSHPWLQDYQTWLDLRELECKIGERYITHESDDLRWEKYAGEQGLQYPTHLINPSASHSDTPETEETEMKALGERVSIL", "experiment": "Selectivity interaction (KinomeScan (DiscoverX)) EUB0000695a PRKD1", "conditions": "at 100 nM"}, "[5]": {"molecular_target": "Tyrosine-protein kinase Srms (Homo sapiens) (UniProt Q9H3Y6)", "sequence (Q9H3Y6 whole entry)": "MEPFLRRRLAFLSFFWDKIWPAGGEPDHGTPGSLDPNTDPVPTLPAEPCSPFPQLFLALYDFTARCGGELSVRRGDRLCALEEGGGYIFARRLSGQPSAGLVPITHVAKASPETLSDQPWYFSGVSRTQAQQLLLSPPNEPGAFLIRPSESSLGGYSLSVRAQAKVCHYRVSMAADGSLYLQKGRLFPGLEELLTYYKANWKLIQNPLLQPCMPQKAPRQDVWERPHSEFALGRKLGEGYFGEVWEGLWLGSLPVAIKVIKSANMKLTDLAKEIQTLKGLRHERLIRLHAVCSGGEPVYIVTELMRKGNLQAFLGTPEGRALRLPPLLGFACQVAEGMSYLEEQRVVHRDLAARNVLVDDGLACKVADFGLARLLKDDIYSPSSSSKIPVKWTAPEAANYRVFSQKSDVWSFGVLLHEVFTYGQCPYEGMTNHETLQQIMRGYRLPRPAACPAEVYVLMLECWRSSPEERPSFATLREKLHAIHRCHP", "experiment": "Selectivity interaction (Kinase panel (Z-LYTE Assay)) EUB0001632a SRMS", "conditions": "at 10 µM"}, "[6]": {"molecular_target": "Wee1-like protein kinase (Homo sapiens) (UniProt P30291)", "sequence (P30291 whole entry, looked up)": "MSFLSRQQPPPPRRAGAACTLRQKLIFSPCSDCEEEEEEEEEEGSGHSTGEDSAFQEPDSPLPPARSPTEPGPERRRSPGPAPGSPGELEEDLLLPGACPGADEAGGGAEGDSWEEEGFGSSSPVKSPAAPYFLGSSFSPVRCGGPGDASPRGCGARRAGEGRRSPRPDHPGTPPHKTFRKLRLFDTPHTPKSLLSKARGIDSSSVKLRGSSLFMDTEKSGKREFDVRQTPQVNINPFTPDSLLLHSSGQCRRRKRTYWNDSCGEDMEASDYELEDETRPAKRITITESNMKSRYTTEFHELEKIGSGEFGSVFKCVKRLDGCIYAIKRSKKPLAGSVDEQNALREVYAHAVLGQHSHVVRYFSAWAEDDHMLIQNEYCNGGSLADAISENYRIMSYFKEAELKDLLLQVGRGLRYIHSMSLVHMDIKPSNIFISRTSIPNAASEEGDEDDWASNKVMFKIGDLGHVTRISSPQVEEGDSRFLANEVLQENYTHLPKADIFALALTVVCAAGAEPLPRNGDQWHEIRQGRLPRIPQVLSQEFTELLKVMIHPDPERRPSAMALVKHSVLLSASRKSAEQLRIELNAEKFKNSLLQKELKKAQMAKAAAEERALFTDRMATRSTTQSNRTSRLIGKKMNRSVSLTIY", "experiment": "Selectivity interaction (ProQinase) EUB0000171b WEE1"}}, "data": [{"molecule": "CC(=O)c1cc(-c2ccccc2OCC2CC2)c2ncccn12", "values": [{"measurement": "% of control", "setting": "[1]", "result": 80, "unit": "%"}]}, {"molecule": "COCC(=O)NC/C=C/c1ccc2ncnc(Nc3ccc(Oc4ccc(C)nc4)c(C)c3)c2c1", "note": "[CP-724714]", "values": [{"measurement": "% of control", "setting": "[2]", "result": 100, "unit": "%"}]}, {"molecule": "Cc1cc(F)c(C(=O)Nc2cccc(-c3nncn3C(C)C)n2)cc1-n1cnc(C2CC2)c1", "values": [{"measurement": "% of control", "setting": "[3]", "result": 97, "unit": "%"}, {"measurement": "% of control", "setting": "[4]", "result": 8.7, "unit": "%"}]}, {"molecule": "Cn1cc(-n2cnc3c(NCc4nc5cc(Cl)c(Cl)cc5[nH]4)nc(N4CCOCC4)nc32)cn1", "values": [{"measurement": "% of control", "setting": "[5]", "result": -3.87, "unit": "%"}]}, {"molecule": "C=CC(=O)Nc1cccc(C(=O)Nc2ccc(Nc3cc(-c4[nH]c(SC)nc4C)ccn3)cc2)c1", "values": [{"measurement": "% of control", "setting": "[6]; at 1 µM", "result": 73, "unit": "%"}, {"measurement": "% of control", "setting": "[6]; at 5 µM", "result": 79, "unit": "%"}]}]}
